These results are taken from paper PMC10907358, “Identification of oleic acid as an endogenous ligand of GPR3” (Cell Research, 2024).

For experiment [1], the system named is Gs/cAMP/PKA signaling in iBAT. Nature of the experiment: Ex vivo iBAT of WT mice, p-PKA substrate immunoblot. The experiment is classed as cell-based, mouse. Conditions: up to 4 h. The protocol:
iBAT was isolated from C57BL/6N mice at 4-6 weeks old and cut into 10 mg pieces. […] Another group of iBAT pieces were incubated in DMEM medium at 4 °C, and treated with different doses of OA (0 mM, 1 mM, 5 mM) for 4 h. OA (Sigma, O1008) was dissolved in serum-free DMEM (Gibco, high glucose, 12100046) by using an ultrasonic cleaner at 40 °C for 10 min.

The next experiment has as its target T1, GPR3 H96A mutant (Homo sapiens, UniProt P46089, H96A).
T1 construct: expressed in transfected cells
As to the kind of experiment: OA dose-response, GloSensor cAMP assay, AD293 stably expressing GPR3 H96A mutant. The experiment is classed as cell-based. Conditions: Table S3, H96A. The method, then:
(§1) The GloSensor cAMP assay was performed according to the instructions of Promega. AD293 cells were split into 6-well plate (300,000 cells/mL) and then transfected with the pGloSensor™-22F cAMP plasmid and pcDNA3-GPR3 plasmid by Lipofectamine 2000, at a ratio of 2:1 (μL:μg). 24 h after transfection, cells were split into 96-well plate for another 24 h incubation. After removal of cell medium, 90 μL of 3% v/v (the GloSensor cAMP reagent vs serum-free medium) substrate was added into each well. After 2 h incubation at RT, background measurements were taken, and then 10 μL 10× stock compounds were added for the second measurements of ligand activation via EnVision 2105 (PerkinElmer). Relative cAMP level was calculated by the cAMP level after addition of ligand divided by the cAMP level before addition of ligand (basal level). Stock FAs (i.e., 10–50 mM) were solubilized in DMSO, then diluted in cell culture buffer to designated concentrations and sonicated to ensure that they were evenly distributed in the buffer before being added to cells.
(§2) AD293 cells were split into 6-well plate (300,000 cells/mL), and then transfected with the pGloSensor™-22F cAMP plasmid and the pcDNA6-GPR3-3× FLAG plasmid (WT receptor or the mutants, F120A^3.36, W260A^6.48, L283F^7.39, A201W^5.46, Y280A^7.36, H96A^2.60 and H96A^2.60/Y280A^7.36) by Lipofectamine 2000 at a ratio of 2:1 (μL:μg). […]

The target in a further experiment is T2, GPR3 A201W mutant (Homo sapiens, UniProt P46089, A201W).
T2 construct: expressed in transfected cells
As to the kind of experiment: OA dose-response, GloSensor cAMP assay, AD293 stably expressing GPR3 A201W mutant. The experiment is classed as cell-based. As to conditions: Table S3, A201W. The protocol: as §1, §2

In a further experiment the target is T3, GPR3 W260A mutant (Homo sapiens, UniProt P46089, W260A).
T3 construct: expressed in transfected cells
Nature of the experiment: OA dose-response, GloSensor cAMP assay, AD293 stably expressing GPR3 W260A mutant. The experiment is classed as cell-based. Conditions: W260A stable line. The method, then: as §1, §2
(In general: Cyclic AMP is a second messenger, typically raised through Gs and lowered through Gi signalling.)

In a further experiment the target is T4, GPR3 H96A/Y280A mutant (Homo sapiens, UniProt P46089, H96A/Y280A).
T4 construct: expressed in transfected cells
Nature of the experiment: OA dose-response, GloSensor cAMP assay, AD293 stably expressing GPR3 H96A/Y280A mutant. Format: cell-based. As to conditions: H96A/Y280A stable line. The protocol: as §1, §2

A further experiment concerns the target T5, GPR3 L283F mutant (Homo sapiens, UniProt P46089, L283F).
T5 construct: expressed in transfected cells
Nature of the experiment: OA dose-response, GloSensor cAMP assay, AD293 stably expressing GPR3 L283F mutant. The experiment is classed as cell-based. As to conditions: Table S3, L283F. The protocol:
as §1, §2

For the next experiment, the target named is T6, GPR3 F120A mutant (Homo sapiens, UniProt P46089, F120A).
T6 construct: expressed in transfected cells
As to the kind of experiment: OA dose-response, GloSensor cAMP assay, AD293 stably expressing GPR3 F120A mutant. Format: cell-based. As to conditions: Table S3, F120A. The method, then:
as §1, §2

Another experiment addresses T7, GPR3 Y280A mutant (Homo sapiens, UniProt P46089, Y280A).
T7 construct: expressed in transfected cells
As to the kind of experiment: OA dose-response, GloSensor cAMP assay, AD293 stably expressing GPR3 Y280A mutant. Format: cell-based. Conditions: Table S3, Y280A. The protocol: as §1, §2

For a further experiment, the target named is T8, GPR3 (Homo sapiens, UniProt P46089).
T8 construct: expressed in transfected cells
As to the kind of experiment: GloSensor cAMP assay in GPR3 stably expressing AD293 cell line (agonist mode). The experiment is classed as cell-based. The method, then:
as §1
AD293 cells were split into 6-well plate (300,000 cells/mL), and then transfected with the pGloSensor™-22F cAMP plasmid and the pcDNA6-GPR3-3× FLAG plasmid (WT receptor or the mutants, F120A^3.36, W260A^6.48, L283F^7.39, A201W^5.46, Y280A^7.36, H96A^2.60 and H96A^2.60/Y280A^7.36) by Lipofectamine 2000 at a ratio of 2:1 (μL:μg). Geneticin (2 mg/mL) and blasticidin (20 μg/mL) were used to select colonies that stably express both GPR3 and GloSensor 22F. The cell culture medium containing antibiotics was changed every 2 days till well-separated colonies appeared. Then individual single colony was picked by a small piece of sterilized filter paper soaked with trypsin and separately cultured in a single well of 24-well plate. At least 24 candidate colonies were selected for each mutant and WT. After several days of culture, each colony was triplicated. One of the triplicates was used for western blot analysis, another for the GloSensor cAMP assay, and the remaining one was stored for staining. The colonies with top scores in both expression (western blot) and functional assay were selected as the representative colonies for each mutant or WT for further analysis.

Experiment [2] deals with Gs/cAMP/PKA signaling in Gpr3 KO iBAT. As to the kind of experiment: Ex vivo iBAT of Gpr3 KO mice, p-PKA substrate immunoblot. Conditions: OA 1 mM, 4 h. Format: cell-based, mouse. The method, then: iBAT was isolated from C57BL/6N mice at 4–6 weeks old and cut into 10 mg pieces. 10 mg iBAT was further cut into four pieces.[67] iBAT pieces were incubated in Dulbecco’s modified eagle medium (DMEM) at 4 °C, and treated with OA (1 mM) for different times (0 h, 1 h, 2 h, and 4 h). Another group of iBAT pieces were incubated in DMEM medium at 4 °C, and treated with different doses of OA (0 mM, 1 mM, 5 mM) for 4 h. OA (Sigma, O1008) was dissolved in serum-free DMEM (Gibco, high glucose, 12100046) by using an ultrasonic cleaner at 40 °C for 10 min. p-(S/T)PKA substrate and GAPDH levels were measured by immunoblotting, and quantified by densitometry using ImageJ. iBAT was also isolated from WT and Gpr3 KO mice at 4–6 weeks old and cut into 10 mg pieces. 10 mg iBAT was further cut into four pieces. iBAT pieces were incubated in DMEM medium at 4 °C, and treated with or without OA (1 mM) for 4 h. p-(S/T)PKA substrate and GAPDH levels were measured by immunoblotting, and quantified by ImageJ.
To generate Gpr3 complete KO mice rapidly, we performed one-step complete knockout based on CRISPR/Cas9 systems, which was described previously.[68] Briefly, four adjacent single-guide RNAs (sgRNAs) (spaced 50–100 bp apart; sgRNA1: […]; sgRNA2: […]; sgRNA3: […]; sgRNA4: […]) that target key exon of Gpr3 were designed. […]
(In western blotting, separated proteins are transferred to a membrane and probed.)

On the set-up of experiment [3]: method as in PMID 7722695, PMID 18059405. As to conditions: feeding rats with OA; cited from earlier work.
The target in the next experiment is T9, GPR12 (Homo sapiens, UniProt P47775).
T9 construct: FLAG; expressed in transfected cells
T9 sequence (P47775 1-334): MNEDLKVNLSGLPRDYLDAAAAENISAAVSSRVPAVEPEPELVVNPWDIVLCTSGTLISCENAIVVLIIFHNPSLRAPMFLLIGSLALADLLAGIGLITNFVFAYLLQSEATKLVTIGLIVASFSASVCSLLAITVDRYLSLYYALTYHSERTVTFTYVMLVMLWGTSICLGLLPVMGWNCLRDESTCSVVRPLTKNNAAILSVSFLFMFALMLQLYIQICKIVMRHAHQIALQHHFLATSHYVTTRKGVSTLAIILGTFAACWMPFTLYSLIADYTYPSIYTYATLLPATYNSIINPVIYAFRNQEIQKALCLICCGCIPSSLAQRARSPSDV
Nature of the experiment: GloSensor cAMP assay in GPR12 stably expressing AD293 cell line. The experiment is classed as cell-based. Conditions: lipid concentration 300 μM.

Another experiment deals with GPR120. More on the design: method as in PMID 36862765. Conditions: cited from earlier work.
[4] abbreviates: Table S3, WT receptor stable line, OA dose-response.

Where “and” joins values, the source holds several entries; their conditions need not be identical. Equal entries are not always repeated. Entries after “also recorded” stand apart in the source; their conditions may differ.

T8 sequence (P46089 whole entry): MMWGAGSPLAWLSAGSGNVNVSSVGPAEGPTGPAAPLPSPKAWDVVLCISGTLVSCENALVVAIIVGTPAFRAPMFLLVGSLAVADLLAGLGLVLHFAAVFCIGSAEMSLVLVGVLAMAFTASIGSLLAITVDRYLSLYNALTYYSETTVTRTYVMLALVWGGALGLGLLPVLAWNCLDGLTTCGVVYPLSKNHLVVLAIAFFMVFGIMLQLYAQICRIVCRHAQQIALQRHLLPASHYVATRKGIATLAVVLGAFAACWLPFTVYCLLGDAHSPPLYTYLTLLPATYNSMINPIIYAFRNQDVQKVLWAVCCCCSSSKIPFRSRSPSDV
T7 sequence (P46089 whole entry Y280A): as the sequence (P46089 whole entry) above, with Y280A counted along it
T6 sequence (P46089 whole entry F120A): as the sequence (P46089 whole entry) above, with F120A counted along it
T1 sequence (P46089 whole entry H96A): as the sequence (P46089 whole entry) above, with H96A counted along it
T2 sequence (P46089 whole entry A201W): as the sequence (P46089 whole entry) above, with A201W counted along it
T5 sequence (P46089 whole entry L283F): as the sequence (P46089 whole entry) above, with L283F counted along it
T3 sequence (P46089 whole entry W260A): as the sequence (P46089 whole entry) above, with W260A counted along it
T4 sequence (P46089 whole entry H96A/Y280A): as the sequence (P46089 whole entry) above, with H96A, Y280A counted along it

As a reminder, the EC50 is the midpoint of the concentration-response curve. As to `CCCCCCCC/C=C\CCCCCCCC(=O)O` [OA, oleic acid], the “Gs/cAMP/PKA signaling (phosphorylation of PKA substrates)” value in experiment [1] (WT iBAT at 4 °C, lipid 1 mM (OA also 5 mM)) was “robust increase of Gs/cAMP/PKA signaling; also recorded: substantially increased Gs/cAMP/PKA signaling”; in experiment [1] (WT iBAT at 37 °C, OA 1 mM, 5 mM), “to a lesser extent than in the samples treated at 4 °C”. The EC50 on GPR3 H96A mutant was 255 µM; on GPR3 A201W mutant, 291 µM; at GPR3 F120A mutant, 252 µM; at GPR3 Y280A mutant, 322 µM; on GPR3 (setting [4]), 293 µM; on GPR3 (cAMP induction, GPR3 stably expressing AD293), 299 µM and 300 µM. The EC50 with GPR120 was 40.6 µM. In addition, the maximum response is 83.68 at GPR3 H96A mutant; 157.9 at GPR3 A201W mutant; 39.13 at GPR3 L283F mutant; 23.67 at GPR3 F120A mutant; 61.91 at GPR3 Y280A mutant; 164.1 on GPR3 (Table S2, relative cAMP level, at 500 μM (FA 12:0, 16:1, 18:0, OEA 18:1, OLM 18:1), 450 μM (FA 18:1), 400 μM (FA 16:0), 300 μM (FA 22:0, 18:2), 100 μM (FAME 18:0, FAEE 18:0, lysophospholipids), 3 μM (LTB4)). In addition, the maximum response on GPR3 (setting [4]) is 186.6. At GPR3 W260A mutant, the “response to OA (in words)” value is given as “completely lost their response to OA”. The “Emax compared to WT receptor (in words)” value at GPR3 H96A/Y280A mutant was “lower Emax than the WT receptor”. The “induction of Gs/cAMP/PKA signaling by OA” value in experiment [2] is “completely blocked”. For the same molecule, the “thermogenesis and body weight” value in experiment [3] was “induces thermogenesis and reduces body weight”. At GPR12, the “GPR12 activation (in words)” value was “strongest effect on GPR12 activation”.
